Our source for the EC50 values is PubChem BioAssay AID652002 (Sanford-Burnham Center for Chemical Genomics, 2013).

Test [1] can be described thus: TRAIL sensitizers in caspase-8 expressing neuroblastoma cells, dose response, NB7 cells plus caspase-8, luminescence, panel (AID 652002). As to conditions: NB7 neuroblastoma +caspase-8, no TRAIL, compound-alone cytotoxicity counter-screen, luminescence viability, NB7+Caspase-8. (Counterscreens check selectivity or assay interference.)
For a further test, the target named is NB7+Caspase-8. Described as above. As to conditions: NB7 neuroblastoma +caspase-8, TRAIL sensitization, luminescence viability, with TRAIL.
Test [2] addresses Tumor necrosis factor receptor superfamily member 10B (Homo sapiens) (UniProt O14763). The description is as above. As to conditions: NB7 neuroblastoma +caspase-8, TRAIL sensitization, luminescence viability; NB7+Caspase-8; with TRAIL, mean of runs.
Setting [3] is: run 1, single replicate panel EC50.
The mark [4] stands for this setting: run 2, single replicate panel EC50.

Activity calls are given as the source filed them. No rule for the calls is given here.

Sequence of Tumor necrosis factor receptor superfamily member 10B (Homo sapiens) (O14763 whole entry, looked up): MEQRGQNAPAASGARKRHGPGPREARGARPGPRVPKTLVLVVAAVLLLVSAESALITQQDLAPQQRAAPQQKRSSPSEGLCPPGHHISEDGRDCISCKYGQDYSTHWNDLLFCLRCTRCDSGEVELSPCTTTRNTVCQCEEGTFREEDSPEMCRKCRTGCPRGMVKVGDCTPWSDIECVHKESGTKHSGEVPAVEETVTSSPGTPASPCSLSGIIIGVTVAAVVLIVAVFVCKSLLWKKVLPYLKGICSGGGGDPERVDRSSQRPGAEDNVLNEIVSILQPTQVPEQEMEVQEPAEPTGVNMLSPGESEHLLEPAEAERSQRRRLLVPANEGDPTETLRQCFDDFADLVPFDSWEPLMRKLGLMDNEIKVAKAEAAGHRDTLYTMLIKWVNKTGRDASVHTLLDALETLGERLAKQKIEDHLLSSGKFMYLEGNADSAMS

Turning to `COC(=O)c1ccc(/C=C/c2nc3ccccc3c(=O)[nH]2)cc1`, the EC50 – broadly, the concentration giving half of the maximal effect – in test [1] (mean of runs) was > 12.5 µM (inactive); in test [1] (setting [3]), > 12.5 µM; in test [1] (setting [4]), > 12.5 µM; at NB7+Caspase-8 (setting [3]) it was > 12.5 µM; at NB7+Caspase-8 (setting [4]), > 12.5 µM; in test [2], > 12.5 µM (inactive).

In the case of `COc1ccccc1C=NNC(=O)NN=Cc1ccccc1OC`, the EC50 result in test [1] (mean of runs) and in test [2] was “inactive” each time. The 50% effective concentration (EC50) is 8.5 µM in test [1] (setting [3]), 10.3 µM in test [1] (setting [4]), > 12.5 µM at NB7+Caspase-8 (setting [3]) and 7.21 µM on NB7+Caspase-8 (setting [4]).

`COc1ccc(-c2cc(C(=O)N/N=C/c3cccnc3)c3ccccc3n2)cc1`: the EC50 entry in test [1] (mean of runs) was “inactive”. The EC50 in test [1] (setting [3]) is 11.3 µM; in test [1] (setting [4]), > 12.5 µM; on NB7+Caspase-8 (setting [3]), > 12.5 µM; at NB7+Caspase-8 (setting [4]), > 12.5 µM; in test [2], > 12.5 µM (inactive).

On to `CCN(CC)c1ccc(/C=N/NC(=O)c2ccco2)cc1`, for which the EC50 is > 12.5 µM (inactive) in test [1] (mean of runs); > 12.5 µM in test [1] (setting [3]); > 12.5 µM in test [1] (setting [4]); > 12.5 µM at NB7+Caspase-8 (setting [3]); > 12.5 µM at NB7+Caspase-8 (setting [4]); > 12.5 µM (inactive) in test [2].

For the molecule `COc1cc(NC(=O)c2cncc(-c3ccc(C#N)cc3)c2)cc(C(=O)Nc2cccc(C(F)(F)F)c2)c1`, the EC50 is > 12.5 µM (inactive) in test [1] (mean of runs); > 12.5 µM in test [1] (setting [3]); > 12.5 µM in test [1] (setting [4]); > 12.5 µM at NB7+Caspase-8 (setting [3]); > 12.5 µM at NB7+Caspase-8 (setting [4]); > 12.5 µM (inactive) in test [2].

Turning to `Cc1nc(Cl)c2oc3ccccc3c2n1`, the EC50 in test [1] (mean of runs) was > 12.5 µM (inactive); in test [1] (setting [3]) it was > 12.5 µM; in test [1] (setting [4]), > 12.5 µM; on NB7+Caspase-8 (setting [3]) it was > 12.5 µM; on NB7+Caspase-8 (setting [4]), > 12.5 µM; in test [2] it was > 12.5 µM (inactive).

With `CCOc1ccc(-c2cc(C(=O)N3CCC(C)CC3)c3ccccc3n2)cc1`, the EC50 in test [1] (mean of runs) is > 12.5 µM (inactive); in test [1] (setting [3]) it was > 12.5 µM; in test [1] (setting [4]), > 12.5 µM; at NB7+Caspase-8 (setting [3]) it was > 12.5 µM; at NB7+Caspase-8 (setting [4]) it was 11.5 µM. Besides, the EC50 entry in test [2] is “inactive”.

Consider `O=c1[nH]c(N/N=C\c2ccc3c(c2)OCO3)nc2ccccc12`, for which the EC50 entry in test [1] (mean of runs) and in test [2] was “inactive” in each case. Besides, the EC50 was > 12.5 µM in test [1] (setting [3]), 10.9 µM in test [1] (setting [4]), > 12.5 µM on NB7+Caspase-8 (setting [3]) and 10.1 µM on NB7+Caspase-8 (setting [4]).

Regarding `COc1ccc(NS(=O)(=O)c2cccc(C(=O)N/N=C/c3c(F)c(F)c(F)c(F)c3F)c2)cc1`, in test [1] (mean of runs), the EC50 entry is “inactive”. Moreover, the EC50 in test [1] (setting [3]) was > 12.5 µM; in test [1] (setting [4]), 11.4 µM; at NB7+Caspase-8 (setting [3]), > 12.5 µM; on NB7+Caspase-8 (setting [4]), > 12.5 µM; in test [2] it was > 12.5 µM (inactive).

`CCOC(=O)c1cccc(-[n+]2c(-c3ccccc3)cc(-c3ccccc3)cc2-c2ccccc2)c1`: the EC50 is > 12.5 µM (inactive) in test [1] (mean of runs); > 12.5 µM in test [1] (setting [3]); > 12.5 µM in test [1] (setting [4]); > 12.5 µM on NB7+Caspase-8 (setting [3]); > 12.5 µM on NB7+Caspase-8 (setting [4]); > 12.5 µM (inactive) in test [2].

As to `CCCC1(CCC)C(=O)NC(=NCc2ccccc2)NC1=O`, the EC50 is > 12.5 µM (inactive) in test [1] (mean of runs); > 12.5 µM in test [1] (setting [3]); > 12.5 µM in test [1] (setting [4]); > 12.5 µM on NB7+Caspase-8 (setting [3]); > 12.5 µM on NB7+Caspase-8 (setting [4]); > 12.5 µM (inactive) in test [2].

For `COc1ccc(/C(C)=N/Nc2nncc3ccccc23)cc1`, the EC50 is > 12.5 µM (inactive) in test [1] (mean of runs); > 12.5 µM in test [1] (setting [3]); > 12.5 µM in test [1] (setting [4]); 7.33 µM on NB7+Caspase-8 (setting [3]); > 12.5 µM on NB7+Caspase-8 (setting [4]). Also, in test [2], the EC50 result is “inactive”.

With `Cc1cc(-c2ccccc2)nc(Nc2nc3c(C)cccc3c(=O)[nH]2)n1`, the EC50 was > 12.5 µM (inactive) in test [1] (mean of runs); > 12.5 µM in test [1] (setting [3]); > 12.5 µM in test [1] (setting [4]); > 12.5 µM at NB7+Caspase-8 (setting [3]); > 12.5 µM at NB7+Caspase-8 (setting [4]); > 12.5 µM (inactive) in test [2].

With `C/C(=N\NC(=O)c1n[nH]c2c1CCC2)c1ccco1`, the EC50 in test [1] (mean of runs) was > 12.5 µM (inactive); in test [1] (setting [3]) it was > 12.5 µM; in test [1] (setting [4]), > 12.5 µM; on NB7+Caspase-8 (setting [3]), > 12.5 µM; at NB7+Caspase-8 (setting [4]), > 12.5 µM; in test [2] it was > 12.5 µM (inactive).

As for `Cc1nc2cc(NC(=O)c3ccco3)ccc2n1C`, the EC50 entry in test [1] (mean of runs) is “inactive”. In addition, the half-maximal effective concentration (EC50) is > 12.5 µM in test [1] (setting [3]); 11.5 µM in test [1] (setting [4]); > 12.5 µM at NB7+Caspase-8 (setting [3]); > 12.5 µM on NB7+Caspase-8 (setting [4]); > 12.5 µM (inactive) in test [2].

Turning to `CC1(C)N=C(N)N=C(N)N1c1ccc(CCCCc2ccccc2)cc1`, the EC50 result in test [1] (mean of runs) is “inactive”. Besides, the half-maximal effective concentration (EC50) is > 12.5 µM in test [1] (setting [3]); < 0.39 µM in test [1] (setting [4]); < 0.39 µM on NB7+Caspase-8 (setting [3]); < 0.391 µM at NB7+Caspase-8 (setting [4]); < 0.39 µM (inactive) in test [2].

`CCOC(=O)[C@]12Cc3cc4ccccc4cc3[C@H]1N(Cc1ccccc1)C(=O)c1ccccc12`: the EC50 was > 12.5 µM (inactive) in test [1] (mean of runs); > 12.5 µM in test [1] (setting [3]); > 12.5 µM in test [1] (setting [4]); > 12.5 µM at NB7+Caspase-8 (setting [3]); > 12.5 µM on NB7+Caspase-8 (setting [4]); > 12.5 µM (inactive) in test [2].

In the case of `COC(=O)c1ccc(/C=C(\C#N)c2ccccn2)cc1`, the EC50 is > 12.5 µM (inactive) in test [1] (mean of runs); > 12.5 µM in test [1] (setting [3]); > 12.5 µM in test [1] (setting [4]); > 12.5 µM on NB7+Caspase-8 (setting [3]); > 12.5 µM at NB7+Caspase-8 (setting [4]); > 12.5 µM (inactive) in test [2].

`O=C1CCCCC1Sc1nnc(-c2ccc3c(c2)OCO3)o1` (stereo not drawn): the EC50 entry in test [1] (mean of runs) was “inactive”. For the same molecule, the EC50 was > 12.5 µM in test [1] (setting [3]); 11 µM in test [1] (setting [4]); > 12.5 µM at NB7+Caspase-8 (setting [3]); > 12.5 µM on NB7+Caspase-8 (setting [4]); > 12.5 µM (inactive) in test [2].

Regarding `Cc1cccc(CC(=O)Nc2cc(C)c3c(=O)oc4ccccc4c3n2)c1`, the EC50 is > 12.5 µM (inactive) in test [1] (mean of runs); > 12.5 µM in test [1] (setting [3]); > 12.5 µM in test [1] (setting [4]); > 12.5 µM on NB7+Caspase-8 (setting [3]); > 12.5 µM at NB7+Caspase-8 (setting [4]); > 12.5 µM (inactive) in test [2].

With `O=C(N/N=C/c1cccnc1)c1ccc2c(c1)OCO2`, in test [1] (mean of runs), the EC50 result was “inactive”. The EC50 in test [1] (setting [3]) was 11.2 µM; in test [1] (setting [4]), > 12.5 µM; on NB7+Caspase-8 (setting [3]), > 12.5 µM; at NB7+Caspase-8 (setting [4]) it was > 12.5 µM; in test [2] it was > 12.5 µM (inactive).

On to `Cc1nc2cc(NC(=O)Nc3cccc([N+](=O)[O-])c3)ccc2n1C`, for which the EC50 was > 12.5 µM (inactive) in test [1] (mean of runs); > 12.5 µM in test [1] (setting [3]); > 12.5 µM in test [1] (setting [4]); > 12.5 µM at NB7+Caspase-8 (setting [3]); 6.56 µM at NB7+Caspase-8 (setting [4]). The EC50 entry in test [2] was “inactive”.

Regarding `O=c1[nH]c(=S)[nH]c2c1C(c1ccc(Cl)c(Cl)c1)OC(CCc1ccccc1)C2` (stereo not drawn), the EC50 is > 12.5 µM (inactive) in test [1] (mean of runs); > 12.5 µM in test [1] (setting [3]); > 12.5 µM in test [1] (setting [4]); > 12.5 µM at NB7+Caspase-8 (setting [3]); > 12.5 µM at NB7+Caspase-8 (setting [4]); > 12.5 µM (inactive) in test [2].
